{"source": "ChEMBL document CHEMBL4043211", "about": "“Synthesis and anti-enterovirus activity of new analogues of MDL-860” (Bioorg Med Chem Lett, 2017)", "key": {"[1]": {"assay": "Selectivity index, ratio of CC50 for human Hep2 cells to IC50 for Coxsackievirus B1 Connecticut 5 infected in human Hep2 cells", "format": "toxicity, cell-based", "conditions": "HEp-2 cells, read-out: Ratio CC50/IC50; call rule not given here"}, "[2]": {"assay": "Selectivity index, ratio of CC50 for human Hep2 cells to IC50 for Coxsackievirus B3 Nancy infected in human Hep2 cells", "format": "toxicity, cell-based", "conditions": "HEp-2 cells, read-out: Ratio CC50/IC50"}, "Coxsackievirus B1 [3]": {"test_system": "Coxsackievirus B1", "assay": "Antiviral activity against Coxsackievirus B1 infected in new born ICR mouse assessed as increase in mean survival time at 75 mg/kg, sc administered for 12 days", "format": "functional"}, "Coxsackievirus B1 [4]": {"test_system": "Coxsackievirus B1", "assay": "Antiviral activity against Coxsackievirus B1 infected in new born ICR mouse assessed as mortality at 75 mg/kg, sc administered for 12 days (reference value: 100%)", "format": "functional", "conditions": "Enterovirus B, 288 h"}, "Coxsackievirus B3": {"test_system": "Coxsackievirus B3", "assay": "Antiviral activity against Coxsackievirus B3 Nancy infected in human Hep2 cells assessed as inhibition of virus-induced cytopathic effect after 48 hrs by neutral red uptake assay", "format": "functional, cell-based"}, "[5]": {"assay": "Selectivity index, ratio of CC50 for human Hep2 cells to IC50 for Poliovirus 1 infected in human Hep2 cells", "format": "toxicity, cell-based", "conditions": "HEp-2 cells, read-out: Ratio CC50/IC50"}, "Coxsackievirus B1 [6]": {"test_system": "Coxsackievirus B1", "assay": "Antiviral activity against Coxsackievirus B1 infected in new born ICR mouse assessed as protection index at 75 mg/kg, sc administered for 12 days (reference value: 0%)", "format": "functional"}, "Coxsackievirus B1 [7]": {"test_system": "Coxsackievirus B1", "assay": "Antiviral activity against Coxsackievirus B1 Connecticut 5 infected in human Hep2 cells assessed as inhibition of virus-induced cytopathic effect after 48 hrs by neutral red uptake assay", "format": "functional, cell-based"}, "[8]": {"assay": "Cytotoxicity against human Hep2 cells assessed as decrease in cell viability after 48 hrs by neutral red uptake assay", "format": "cell-based", "conditions": "HEp-2 cells"}, "Poliovirus 1": {"test_system": "Poliovirus 1", "assay": "Antiviral activity against Poliovirus 1 LSc-2ab infected in human Hep2 cells assessed as inhibition of virus-induced cytopathic effect after 48 hrs by neutral red uptake assay", "format": "functional, cell-based"}, "Coxsackievirus B1 [9]": {"test_system": "Coxsackievirus B1", "assay": "Antiviral activity against Coxsackievirus B1 infected in new born ICR mouse assessed as mortality at 50 mg/kg, sc administered for 12 days (reference value: 100%)", "format": "functional", "conditions": "Enterovirus B, 288 h"}, "Coxsackievirus B1 [10]": {"test_system": "Coxsackievirus B1", "assay": "Antiviral activity against Coxsackievirus B1 infected in new born ICR mouse assessed as increase in mean survival time at 50 mg/kg, sc administered for 12 days", "format": "functional"}, "Coxsackievirus B1 [11]": {"test_system": "Coxsackievirus B1", "assay": "Antiviral activity against Coxsackievirus B1 infected in new born ICR mouse assessed as protection index at 50 mg/kg, sc administered for 12 days (reference value: 0%)", "format": "functional"}, "Coxsackievirus B1 [12]": {"test_system": "Coxsackievirus B1", "assay": "Antiviral activity against Coxsackievirus B1 infected in new born ICR mouse assessed as increase in mean survival time at 25 mg/kg, sc administered for 12 days", "format": "functional"}, "Coxsackievirus B1 [13]": {"test_system": "Coxsackievirus B1", "assay": "Antiviral activity against Coxsackievirus B1 infected in new born ICR mouse assessed as protection index at 25 mg/kg, sc administered for 12 days (reference value: 0%)", "format": "functional"}, "Coxsackievirus B1 [14]": {"test_system": "Coxsackievirus B1", "assay": "Antiviral activity against Coxsackievirus B1 infected in new born ICR mouse assessed as mortality at 25 mg/kg, sc administered for 12 days (reference value: 100%)", "format": "functional", "conditions": "Enterovirus B, 288 h"}, "[15]": {"conditions": "Enterovirus B, Nancy, HEp-2, 48 h, read-out: IC50"}, "[16]": {"conditions": "Enterovirus B, Connecticut 5, HEp-2, 48 h, read-out: IC50"}, "[17]": {"conditions": "Enterovirus C, LSc-2ab, HEp-2, 48 h, read-out: IC50"}}, "data": [{"smiles": "N#Cc1cc([N+](=O)[O-])ccc1Oc1ccc(Cl)c(Cl)c1", "values": [{"measurement": "selectivity ratio", "setting": "[1]", "result": 587}, {"measurement": "selectivity ratio", "setting": "[2]", "result": 182}, {"measurement": "MST", "setting": "Coxsackievirus B1 [3]", "result": 3, "unit": "days"}, {"measurement": "mortality at 75 mg/kg", "setting": "Coxsackievirus B1 [4]", "result": 100, "unit": "%"}, {"measurement": "IC50", "setting": "Coxsackievirus B3; [15]", "result": 2.7, "unit": "µM"}, {"measurement": "selectivity ratio", "setting": "[5]", "result": 72.5}, {"measurement": "PI", "setting": "Coxsackievirus B1 [6]", "result": 0, "unit": "%"}, {"measurement": "IC50", "setting": "Coxsackievirus B1 [7]; [16]", "result": 0.8, "unit": "µM"}, {"measurement": "CC50 at 48 h", "setting": "[8]", "result": 493, "unit": "µM"}, {"measurement": "IC50", "setting": "Poliovirus 1; [17]", "result": 6.8, "unit": "µM"}]}, {"smiles": "Cc1c(Br)cc(Br)c(Oc2ccc([N+](=O)[O-])cc2C#N)c1Br", "values": [{"measurement": "selectivity ratio", "setting": "[1]", "result": 2.2}, {"measurement": "selectivity ratio", "setting": "[2]", "result": 19.6}, {"measurement": "IC50", "setting": "Coxsackievirus B3; [15]", "result": 29.6, "unit": "µM"}, {"measurement": "IC50", "setting": "Coxsackievirus B1 [7]; [16]", "result": 256, "unit": "µM"}, {"measurement": "CC50 at 48 h", "setting": "[8]", "result": 570, "unit": "µM"}, {"measurement": "IC50", "setting": "Poliovirus 1", "result": "Not Active"}]}, {"smiles": "N#Cc1cc([N+](=O)[O-])ccc1Oc1c(Cl)c(Cl)c(Cl)c(Cl)c1Cl", "values": [{"measurement": "selectivity ratio", "setting": "[1]", "result": 10.9}, {"measurement": "selectivity ratio", "setting": "[2]", "result": 20.5}, {"measurement": "IC50", "setting": "Coxsackievirus B3; [15]", "result": 5.8, "unit": "µM"}, {"measurement": "IC50", "setting": "Coxsackievirus B1 [7]; [16]", "result": 10.9, "unit": "µM"}, {"measurement": "CC50 at 48 h", "setting": "[8]", "result": 119, "unit": "µM"}, {"measurement": "IC50", "setting": "Poliovirus 1", "result": "Not Active"}]}, {"smiles": "CC1(C)CC(Nc2ccc([N+](=O)[O-])cc2C#N)CC(C)(C)N1", "values": [{"measurement": "selectivity ratio", "setting": "[2]", "result": 1.5}, {"measurement": "IC50", "setting": "Coxsackievirus B3; [15]", "result": 426, "unit": "µM"}, {"measurement": "IC50", "setting": "Coxsackievirus B1 [7]", "result": "Not Active"}, {"measurement": "CC50 at 48 h", "setting": "[8]", "result": 675, "unit": "µM"}, {"measurement": "IC50", "setting": "Poliovirus 1", "result": "Not Active"}]}, {"smiles": "N#Cc1cc([N+](=O)[O-])ccc1Oc1ncn(-c2ccccc2)n1", "values": [{"measurement": "selectivity ratio", "setting": "[1]", "result": 3}, {"measurement": "IC50", "setting": "Coxsackievirus B3", "result": "Not Active"}, {"measurement": "IC50", "setting": "Coxsackievirus B1 [7]; [16]", "result": 190, "unit": "µM"}, {"measurement": "CC50 at 48 h", "setting": "[8]", "result": 571, "unit": "µM"}, {"measurement": "IC50", "setting": "Poliovirus 1", "result": "Not Active"}]}, {"smiles": "N#Cc1cc([N+](=O)[O-])ccc1Oc1c(F)cccc1F", "values": [{"measurement": "selectivity ratio", "setting": "[1]", "result": 507}, {"measurement": "IC50", "setting": "Coxsackievirus B3", "result": "Not Active"}, {"measurement": "selectivity ratio", "setting": "[5]", "result": 52.2}, {"measurement": "mortality at 50 mg/kg", "setting": "Coxsackievirus B1 [9]", "result": 66.7, "unit": "%"}, {"measurement": "IC50", "setting": "Coxsackievirus B1 [7]; [16]", "result": 0.7, "unit": "µM"}, {"measurement": "CC50 at 48 h", "setting": "[8]", "result": 355, "unit": "µM"}, {"measurement": "MST", "setting": "Coxsackievirus B1 [10]", "result": 5.4, "unit": "days"}, {"measurement": "PI", "setting": "Coxsackievirus B1 [11]", "result": 33.3, "unit": "%"}, {"measurement": "IC50", "setting": "Poliovirus 1; [17]", "result": 6.8, "unit": "µM"}]}, {"smiles": "N#Cc1cc([N+](=O)[O-])ccc1Oc1ccccc1-c1cn2ccccc2n1", "values": [{"measurement": "IC50", "setting": "Coxsackievirus B3", "result": "Not Active"}, {"measurement": "IC50", "setting": "Coxsackievirus B1 [7]", "result": "Not Active"}, {"measurement": "CC50 at 48 h", "setting": "[8]", "result": 718, "unit": "µM"}, {"measurement": "IC50", "setting": "Poliovirus 1", "result": "Not Active"}]}, {"smiles": "COc1ccc(Oc2ccc([N+](=O)[O-])cc2C#N)c(C(C)(C)C)c1", "values": [{"measurement": "IC50", "setting": "Coxsackievirus B3", "result": "Not Active"}, {"measurement": "IC50", "setting": "Coxsackievirus B1 [7]", "result": "Not Active"}, {"measurement": "CC50 at 48 h", "setting": "[8]", "result": 22, "unit": "µM"}, {"measurement": "IC50", "setting": "Poliovirus 1", "result": "Not Active"}]}, {"smiles": "N#Cc1cc([N+](=O)[O-])ccc1Oc1ccc(F)c(F)c1", "values": [{"measurement": "selectivity ratio", "setting": "[1]", "result": 405}, {"measurement": "IC50", "setting": "Coxsackievirus B3", "result": "Not Active"}, {"measurement": "selectivity ratio", "setting": "[5]", "result": 118}, {"measurement": "mortality at 50 mg/kg", "setting": "Coxsackievirus B1 [9]", "result": 50, "unit": "%"}, {"measurement": "IC50", "setting": "Coxsackievirus B1 [7]; [16]", "result": 0.8, "unit": "µM"}, {"measurement": "CC50 at 48 h", "setting": "[8]", "result": 320, "unit": "µM"}, {"measurement": "MST", "setting": "Coxsackievirus B1 [10]", "result": 5, "unit": "days"}, {"measurement": "PI", "setting": "Coxsackievirus B1 [11]", "result": 50, "unit": "%"}, {"measurement": "IC50", "setting": "Poliovirus 1; [17]", "result": 2.7, "unit": "µM"}]}, {"smiles": "N#Cc1cc([N+](=O)[O-])ccc1N1C[C@@H]2C[C@H](C1)c1cccc(=O)n1C2", "values": [{"measurement": "selectivity ratio", "setting": "[1]", "result": 3.2}, {"measurement": "IC50", "setting": "Coxsackievirus B3", "result": "Not Active"}, {"measurement": "selectivity ratio", "setting": "[5]", "result": 2.1}, {"measurement": "IC50", "setting": "Coxsackievirus B1 [7]; [16]", "result": 152, "unit": "µM"}, {"measurement": "CC50 at 48 h", "setting": "[8]", "result": 492, "unit": "µM"}, {"measurement": "IC50", "setting": "Poliovirus 1; [17]", "result": 234, "unit": "µM"}]}, {"smiles": "N#Cc1cc([N+](=O)[O-])ccc1Oc1c(F)cc(F)cc1F", "values": [{"measurement": "selectivity ratio", "setting": "[1]", "result": 690}, {"measurement": "MST", "setting": "Coxsackievirus B1 [12]", "result": 2.6, "unit": "days"}, {"measurement": "IC50", "setting": "Coxsackievirus B3", "result": "Not Active"}, {"measurement": "selectivity ratio", "setting": "[5]", "result": 192}, {"measurement": "PI", "setting": "Coxsackievirus B1 [13]", "result": 11.6, "unit": "%"}, {"measurement": "IC50", "setting": "Coxsackievirus B1 [7]; [16]", "result": 0.75, "unit": "µM"}, {"measurement": "CC50 at 48 h", "setting": "[8]", "result": 518, "unit": "µM"}, {"measurement": "IC50", "setting": "Poliovirus 1; [17]", "result": 2.7, "unit": "µM"}, {"measurement": "mortality at 25 mg/kg", "setting": "Coxsackievirus B1 [14]", "result": 88.4, "unit": "%"}]}, {"smiles": "N#Cc1cc([N+](=O)[O-])ccc1Sc1ccccc1Cl", "values": [{"measurement": "selectivity ratio", "setting": "[2]", "result": 5.4}, {"measurement": "IC50", "setting": "Coxsackievirus B3; [15]", "result": 9.9, "unit": "µM"}, {"measurement": "IC50", "setting": "Coxsackievirus B1 [7]", "result": "Not Active"}, {"measurement": "CC50 at 48 h", "setting": "[8]", "result": 53.8, "unit": "µM"}, {"measurement": "IC50", "setting": "Poliovirus 1", "result": "Not Active"}]}, {"smiles": "Cc1ccc(C(C)C)c(Oc2ccc([N+](=O)[O-])cc2C#N)c1", "values": [{"measurement": "selectivity ratio", "setting": "[1]", "result": 5.8}, {"measurement": "IC50", "setting": "Coxsackievirus B3", "result": "Not Active"}, {"measurement": "IC50", "setting": "Coxsackievirus B1 [7]; [16]", "result": 16.2, "unit": "µM"}, {"measurement": "CC50 at 48 h", "setting": "[8]", "result": 94.3, "unit": "µM"}, {"measurement": "IC50", "setting": "Poliovirus 1", "result": "Not Active"}]}]}
